Experimental data as given in the kinase profiling compilation of Christmann-Franck et al. (2016).

Legend:
Test in all cases: radiometric filter-binding kinase assay, Kinase HotSpot
Details in all cases: compound 0.5 µM; ATP 10 µM
[1] = molecular target: AKT1 (human) (UniProt P31749)
[2] = molecular target: NEK11 (human) (UniProt Q8NG66)
[3] = molecular target: PAK7 (human) (UniProt Q9P286)
[4] = molecular target: FRK (human) (UniProt P42685)
[5] = molecular target: NEK2 (human) (UniProt P51955)
[6] = test system: MAP2K6 (human), P52564 [S207E/T211E]
Sequence of MAP2K6 (human), P52564 [S207E/T211E] (P52564 whole entry S207E/T211E, looked up): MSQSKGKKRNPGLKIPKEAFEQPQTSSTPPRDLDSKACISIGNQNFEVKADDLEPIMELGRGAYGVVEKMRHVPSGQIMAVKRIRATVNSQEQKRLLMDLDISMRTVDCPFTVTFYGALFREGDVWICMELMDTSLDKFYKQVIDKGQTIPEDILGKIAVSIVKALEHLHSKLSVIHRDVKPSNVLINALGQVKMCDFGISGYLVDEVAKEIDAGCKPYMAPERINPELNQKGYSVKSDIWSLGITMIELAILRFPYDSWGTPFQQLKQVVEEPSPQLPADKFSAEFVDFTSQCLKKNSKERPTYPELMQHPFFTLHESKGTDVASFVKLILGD

[7] = molecular target: MAPK3 (human) (UniProt P27361)
[8] = molecular target: FYN (human) (UniProt P06241)
[9] = molecular target: MAPK8 (human) (UniProt P45983)
[10] = molecular target: PHKG1 (human) (UniProt Q16816)
[11] = molecular target: MINK1 (human) (UniProt Q8N4C8)
[12] = molecular target: CAMK2A (human) (UniProt Q9UQM7)
Sequence of CAMK2A (human) (Q9UQM7 whole entry, looked up): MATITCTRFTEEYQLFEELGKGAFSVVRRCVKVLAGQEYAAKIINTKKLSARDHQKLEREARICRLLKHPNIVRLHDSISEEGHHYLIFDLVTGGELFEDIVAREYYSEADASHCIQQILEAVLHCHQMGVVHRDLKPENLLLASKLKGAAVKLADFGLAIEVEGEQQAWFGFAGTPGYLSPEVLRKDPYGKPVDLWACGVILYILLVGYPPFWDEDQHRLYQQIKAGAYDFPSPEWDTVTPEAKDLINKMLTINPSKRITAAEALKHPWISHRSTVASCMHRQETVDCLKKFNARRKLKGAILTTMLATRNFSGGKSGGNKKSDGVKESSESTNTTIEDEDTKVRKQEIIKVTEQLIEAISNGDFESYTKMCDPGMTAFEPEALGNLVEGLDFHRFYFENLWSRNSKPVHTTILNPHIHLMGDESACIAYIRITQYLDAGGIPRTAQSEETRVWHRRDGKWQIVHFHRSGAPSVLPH

[13] = molecular target: CDK2 CCNA2 (human) (UniProt P24941+P20248)
[14] = molecular target: STK25 (human) (UniProt O00506)
[15] = molecular target: DYRK2 (human) (UniProt Q92630)
[16] = molecular target: STK11 (human) (UniProt Q15831)
[17] = molecular target: PTK2B (human) (UniProt Q14289)
[18] = molecular target: ROCK2 (human) (UniProt O75116)
Sequence of ROCK2 (human) (O75116 whole entry, looked up): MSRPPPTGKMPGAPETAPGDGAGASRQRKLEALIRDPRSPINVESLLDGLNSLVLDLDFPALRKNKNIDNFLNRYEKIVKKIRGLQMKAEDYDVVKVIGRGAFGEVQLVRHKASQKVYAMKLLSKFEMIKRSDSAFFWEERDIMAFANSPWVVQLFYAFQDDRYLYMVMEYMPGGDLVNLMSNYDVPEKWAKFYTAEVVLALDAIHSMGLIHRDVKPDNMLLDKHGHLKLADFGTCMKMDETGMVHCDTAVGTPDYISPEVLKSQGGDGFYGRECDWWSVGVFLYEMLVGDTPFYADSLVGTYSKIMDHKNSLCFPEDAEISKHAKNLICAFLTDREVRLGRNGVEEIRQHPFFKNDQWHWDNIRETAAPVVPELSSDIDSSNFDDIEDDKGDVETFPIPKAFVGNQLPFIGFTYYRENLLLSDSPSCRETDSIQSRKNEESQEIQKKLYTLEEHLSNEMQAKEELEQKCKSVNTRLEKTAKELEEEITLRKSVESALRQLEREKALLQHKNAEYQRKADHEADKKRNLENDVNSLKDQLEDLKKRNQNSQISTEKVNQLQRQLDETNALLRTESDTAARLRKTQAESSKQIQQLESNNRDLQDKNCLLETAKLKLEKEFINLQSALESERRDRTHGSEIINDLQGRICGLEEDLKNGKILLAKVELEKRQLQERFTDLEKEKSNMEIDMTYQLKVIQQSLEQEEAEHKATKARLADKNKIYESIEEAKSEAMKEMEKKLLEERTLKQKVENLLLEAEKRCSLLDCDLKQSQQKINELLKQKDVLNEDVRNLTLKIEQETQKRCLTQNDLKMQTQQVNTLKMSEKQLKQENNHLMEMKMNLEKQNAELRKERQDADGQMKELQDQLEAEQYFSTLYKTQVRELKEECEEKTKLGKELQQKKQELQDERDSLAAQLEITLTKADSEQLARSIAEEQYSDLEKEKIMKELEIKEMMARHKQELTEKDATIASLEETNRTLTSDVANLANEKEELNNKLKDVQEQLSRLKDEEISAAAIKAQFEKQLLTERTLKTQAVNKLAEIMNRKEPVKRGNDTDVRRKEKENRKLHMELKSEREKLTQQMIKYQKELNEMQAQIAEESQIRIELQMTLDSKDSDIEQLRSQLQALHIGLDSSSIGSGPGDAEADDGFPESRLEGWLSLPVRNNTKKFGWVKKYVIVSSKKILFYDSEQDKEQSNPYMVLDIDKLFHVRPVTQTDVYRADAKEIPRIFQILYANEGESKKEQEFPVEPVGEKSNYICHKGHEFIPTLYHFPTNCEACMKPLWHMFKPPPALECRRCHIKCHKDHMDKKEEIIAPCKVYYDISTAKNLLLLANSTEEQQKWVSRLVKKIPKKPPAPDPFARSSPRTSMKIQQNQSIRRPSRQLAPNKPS

[19] = molecular target: STK24 (human) (UniProt Q9Y6E0)
[20] = molecular target: TYK2 JH1 catalytic (human) (UniProt P29597)
[21] = molecular target: ABL2 (human) (UniProt P42684)
[22] = test system: FLT4 (human), P35916 [Q890H]
Sequence of FLT4 (human), P35916 [Q890H] (P35916 whole entry, looked up, stated change not applied): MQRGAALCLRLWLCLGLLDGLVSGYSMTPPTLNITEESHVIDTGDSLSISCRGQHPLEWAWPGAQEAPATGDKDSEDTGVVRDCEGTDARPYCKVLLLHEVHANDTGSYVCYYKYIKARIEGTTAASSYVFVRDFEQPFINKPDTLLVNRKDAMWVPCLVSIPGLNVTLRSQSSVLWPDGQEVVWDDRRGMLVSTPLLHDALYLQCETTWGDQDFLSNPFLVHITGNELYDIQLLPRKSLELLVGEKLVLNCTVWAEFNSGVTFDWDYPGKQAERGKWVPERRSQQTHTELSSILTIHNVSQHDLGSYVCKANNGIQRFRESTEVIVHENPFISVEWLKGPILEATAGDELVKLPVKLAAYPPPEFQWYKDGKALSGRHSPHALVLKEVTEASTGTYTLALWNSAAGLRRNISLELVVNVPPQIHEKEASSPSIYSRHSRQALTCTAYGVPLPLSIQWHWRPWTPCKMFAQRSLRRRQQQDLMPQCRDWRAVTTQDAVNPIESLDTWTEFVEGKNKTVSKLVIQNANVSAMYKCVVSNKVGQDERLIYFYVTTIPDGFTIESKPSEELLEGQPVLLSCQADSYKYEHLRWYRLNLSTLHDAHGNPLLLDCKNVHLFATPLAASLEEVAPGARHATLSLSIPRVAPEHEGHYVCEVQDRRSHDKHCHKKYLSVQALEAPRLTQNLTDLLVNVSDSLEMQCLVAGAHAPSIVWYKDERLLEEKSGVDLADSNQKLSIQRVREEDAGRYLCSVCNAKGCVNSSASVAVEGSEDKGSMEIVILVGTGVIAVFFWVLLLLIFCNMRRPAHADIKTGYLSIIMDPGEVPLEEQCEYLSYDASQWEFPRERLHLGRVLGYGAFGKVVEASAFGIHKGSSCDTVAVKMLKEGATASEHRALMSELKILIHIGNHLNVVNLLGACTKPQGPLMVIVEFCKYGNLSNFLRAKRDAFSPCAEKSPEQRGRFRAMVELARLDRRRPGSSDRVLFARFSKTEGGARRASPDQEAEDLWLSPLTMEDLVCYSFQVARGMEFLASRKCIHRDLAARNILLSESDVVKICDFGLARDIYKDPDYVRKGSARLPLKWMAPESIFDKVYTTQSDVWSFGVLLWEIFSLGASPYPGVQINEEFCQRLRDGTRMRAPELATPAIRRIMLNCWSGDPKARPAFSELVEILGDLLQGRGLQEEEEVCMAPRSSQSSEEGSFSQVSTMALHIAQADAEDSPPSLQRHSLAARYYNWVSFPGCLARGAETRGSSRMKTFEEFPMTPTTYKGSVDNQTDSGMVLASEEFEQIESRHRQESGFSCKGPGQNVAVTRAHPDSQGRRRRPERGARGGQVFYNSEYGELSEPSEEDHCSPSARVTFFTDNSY

[23] = molecular target: ZAP70 (human) (UniProt P43403)
[24] = molecular target: GRK7 (human) (UniProt Q8WTQ7)
[25] = molecular target: CLK1 (human) (UniProt P49759)
[26] = molecular target: ITK (human) (UniProt Q08881)
[27] = molecular target: MAP3K5 (human) (UniProt Q99683)
[28] = molecular target: FGFR1 (human) (UniProt P11362)
[29] = molecular target: MAPK14 (human) (UniProt Q16539)
[30] = molecular target: PAK4 (human) (UniProt O96013)
[31] = molecular target: FGFR3 (human) (UniProt P22607)
[32] = molecular target: MERTK (human) (UniProt Q12866)
[33] = molecular target: ACVRL1 (human) (UniProt P37023)
[34] = molecular target: NUAK1 (human) (UniProt O60285)
[35] = molecular target: DSTYK (human) (UniProt Q6XUX3)
[36] = molecular target: WNK2 (human) (UniProt Q9Y3S1)
[37] = molecular target: MAP4K5 (human) (UniProt Q9Y4K4)
Sequence of MAP4K5 (human) (Q9Y4K4 whole entry, looked up): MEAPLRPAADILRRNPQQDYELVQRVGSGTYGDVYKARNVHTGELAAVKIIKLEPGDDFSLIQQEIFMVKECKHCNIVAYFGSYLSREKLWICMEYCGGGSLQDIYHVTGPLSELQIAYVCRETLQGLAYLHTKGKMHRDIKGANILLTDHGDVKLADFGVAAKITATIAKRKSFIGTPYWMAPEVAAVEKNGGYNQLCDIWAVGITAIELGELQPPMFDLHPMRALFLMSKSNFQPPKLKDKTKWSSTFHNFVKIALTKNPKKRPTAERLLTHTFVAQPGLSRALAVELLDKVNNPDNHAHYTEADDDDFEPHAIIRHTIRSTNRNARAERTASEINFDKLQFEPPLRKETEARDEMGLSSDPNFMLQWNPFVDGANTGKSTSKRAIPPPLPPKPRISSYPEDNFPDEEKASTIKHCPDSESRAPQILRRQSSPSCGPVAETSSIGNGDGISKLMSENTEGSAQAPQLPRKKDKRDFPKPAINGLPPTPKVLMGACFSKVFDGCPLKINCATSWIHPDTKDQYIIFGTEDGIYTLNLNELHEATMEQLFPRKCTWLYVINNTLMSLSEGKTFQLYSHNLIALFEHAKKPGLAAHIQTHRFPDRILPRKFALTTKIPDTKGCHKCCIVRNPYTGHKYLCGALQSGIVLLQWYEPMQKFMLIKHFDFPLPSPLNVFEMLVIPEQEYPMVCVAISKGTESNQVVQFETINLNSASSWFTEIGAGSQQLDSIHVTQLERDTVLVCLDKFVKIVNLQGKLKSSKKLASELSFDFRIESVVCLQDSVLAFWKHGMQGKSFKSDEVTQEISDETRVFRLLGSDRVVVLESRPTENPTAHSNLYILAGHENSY

[38] = molecular target: RPS6KA6 KD1 KD2 (human) (UniProt Q9UK32)
[39] = molecular target: DYRK4 (human) (UniProt Q9NR20)
[40] = molecular target: BRSK1 (human) (UniProt Q8TDC3)
[41] = molecular target: STK10 (human) (UniProt O94804)
[42] = molecular target: CAMK2B (human) (UniProt Q13554)
Sequence of CAMK2B (human) (Q13554 whole entry, looked up): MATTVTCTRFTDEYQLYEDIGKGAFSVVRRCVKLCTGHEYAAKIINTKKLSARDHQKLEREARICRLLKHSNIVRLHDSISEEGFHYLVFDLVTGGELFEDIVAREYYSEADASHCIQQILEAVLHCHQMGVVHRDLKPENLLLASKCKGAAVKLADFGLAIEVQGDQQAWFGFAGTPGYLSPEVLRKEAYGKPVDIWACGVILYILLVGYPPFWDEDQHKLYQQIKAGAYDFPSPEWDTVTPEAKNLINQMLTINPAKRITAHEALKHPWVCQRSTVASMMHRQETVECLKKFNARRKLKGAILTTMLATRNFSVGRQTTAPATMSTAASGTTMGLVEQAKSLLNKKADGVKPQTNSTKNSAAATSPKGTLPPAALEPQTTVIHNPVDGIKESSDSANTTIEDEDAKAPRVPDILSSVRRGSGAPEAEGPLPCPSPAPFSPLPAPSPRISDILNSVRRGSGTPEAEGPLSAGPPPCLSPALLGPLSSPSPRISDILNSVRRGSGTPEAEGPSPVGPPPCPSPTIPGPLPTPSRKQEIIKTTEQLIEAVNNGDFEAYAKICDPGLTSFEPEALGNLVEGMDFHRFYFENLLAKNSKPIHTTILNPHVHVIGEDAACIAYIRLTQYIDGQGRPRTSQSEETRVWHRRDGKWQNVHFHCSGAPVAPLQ

CS(=O)(=O)CCNCc1ccc(-c2ccc3ncnc(Nc4ccc(OCc5cccc(F)c5)c(Cl)c4)c3c2)o1
residual activity [1]: 95.6% | residual activity [2]: 107% | residual activity [3]: 98.5% | residual activity [4]: 104% | residual activity [5]: 118% | residual activity [6]: 95.4% | residual activity [7]: 94.8% | residual activity [8]: 99.4% | residual activity [9]: 91.9% | residual activity [10]: 95.7% | residual activity [11]: 111% | residual activity [12]: 98.6% | residual activity [13]: 94.5% | residual activity [14]: 102% | residual activity [15]: 102% | residual activity [16]: 106% | residual activity [17]: 101% | residual activity [18]: 92.7% | residual activity [19]: 106% | residual activity [20]: 95.5% | residual activity [21]: 97.3% | residual activity [22]: 93.3% | residual activity [23]: 92.5% | residual activity [24]: 95.8% | residual activity [25]: 107% | residual activity [26]: 98.3% | residual activity [27]: 105% | residual activity [28]: 102% | residual activity [29]: 101% | residual activity [30]: 89.9% | residual activity [31]: 96.7% | residual activity [32]: 95.4% | residual activity [33]: 105% | residual activity [34]: 108% | residual activity [35]: 108% | residual activity [36]: 102% | residual activity [37]: 109% | residual activity [38]: 108% | residual activity [39]: 103% | residual activity [40]: 98.6% | residual activity [41]: 94.8% | residual activity [42]: 93.8%

CN(C)CCCn1cc(C2=C(c3c[nH]c4ccccc34)C(=O)NC2=O)c2ccccc21
residual activity [1]: 93.5% | residual activity [2]: 104% | residual activity [3]: 92.8% | residual activity [4]: 92.3% | residual activity [5]: 96.2% | residual activity [6]: 97.4% | residual activity [7]: 108% | residual activity [8]: 88.3% | residual activity [9]: 90.2% | residual activity [10]: 31.9% | residual activity [11]: 92.1% | residual activity [12]: 35.2% | residual activity [13]: 85.2% | residual activity [14]: 69.7% | residual activity [15]: 111% | residual activity [16]: 92.8% | residual activity [17]: 98.5% | residual activity [18]: 113% | residual activity [19]: 52.9% | residual activity [20]: 79.3% | residual activity [21]: 96.3% | residual activity [22]: 30.6% | residual activity [23]: 93% | residual activity [24]: 60.4% | residual activity [25]: 60.3% | residual activity [26]: 102% | residual activity [27]: 90.2% | residual activity [28]: 74.1% | residual activity [29]: 90.7% | residual activity [30]: 93.6% | residual activity [31]: 87.9% | residual activity [32]: 92.1% | residual activity [33]: 107% | residual activity [34]: 25.9% | residual activity [35]: 95% | residual activity [36]: 107% | residual activity [37]: 68.5% | residual activity [38]: 3.97% | residual activity [39]: 95% | residual activity [40]: 76.9% | residual activity [41]: 19.4% | residual activity [42]: 74.5%

COc1ccc(S(=O)(=O)N(CCO)c2ccccc2CN(C)C/C=C/c2ccc(Cl)cc2)cc1
residual activity [1]: 106% | residual activity [2]: 105% | residual activity [3]: 107% | residual activity [4]: 106% | residual activity [5]: 86.6% | residual activity [6]: 108% | residual activity [7]: 95.1% | residual activity [8]: 103% | residual activity [9]: 104% | residual activity [10]: 95.4% | residual activity [11]: 98.1% | residual activity [12]: 107% | residual activity [13]: 99.7% | residual activity [14]: 99.6% | residual activity [15]: 87.5% | residual activity [16]: 97.7% | residual activity [17]: 106% | residual activity [18]: 94.6% | residual activity [19]: 101% | residual activity [20]: 110% | residual activity [21]: 97.4% | residual activity [22]: 91% | residual activity [23]: 84.7% | residual activity [24]: 114% | residual activity [25]: 96.4% | residual activity [26]: 97.1% | residual activity [27]: 93.7% | residual activity [28]: 99.5% | residual activity [29]: 95.1% | residual activity [30]: 101% | residual activity [31]: 70.1% | residual activity [32]: 97% | residual activity [33]: 98.4% | residual activity [34]: 96.5% | residual activity [35]: 93.5% | residual activity [36]: 97.1% | residual activity [37]: 99.7% | residual activity [38]: 102% | residual activity [39]: 99.6% | residual activity [40]: 98.4% | residual activity [41]: 99.4% | residual activity [42]: 100%
